Our source for the IC50 values is US8883782B2, “Spiro-tetracyclic ring compounds as beta-secretase modulators and methods of use” (Amgen Inc., priority 2010, dated 2014).

Like-named read-outs stand apart in the source and are kept apart here.

For test [1], the target named is Beta Secretase enzyme (BACE) (Homo sapiens, UniProt P56817). Kind of test: In vitro enzymatic BACE FRET (fluorescence resonance energy transfer) assay. It is filed as biochemical. The settings on record: average IC50, enzyme assay; read-out: BACE 1 FRET assay. The method in brief:
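Enzyme activity was measured at pH 4.2 (0.05 M acetate, 10% DMSO final, 100 uM genapol) by cleavage of a 50 nM quenched fluorogenic peptide. After one hour, Tris was added to neutralise the pH and fluorescence was recorded.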

In test [2] the test system is Aβ40 in conditioned medium of cells stably expressing Amyloid Precursor Protein (APP). Put plainly: In vitro BACE cell-based assay (Aβ40 in conditioned medium, sandwich ELISA). The following applies: read-out: HEK cell assay. The gist of the method:
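Secreted Aβ40 is captured with pAb40 and detected with biotinylated 6E10, read by europium time-resolved fluorescence. IC50 comes from percent inhibition versus concentration.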
A general note: ELISA stands for enzyme-linked immunosorbent assay.

The mark [3] stands for this setting: Homo sapiens, HEK293, average IC50, HEK cells.
Where [4] appears, read: Homo sapiens, HEK293, average IC50.

Chain of Beta Secretase enzyme (BACE) (P56817 46-501, species assumed): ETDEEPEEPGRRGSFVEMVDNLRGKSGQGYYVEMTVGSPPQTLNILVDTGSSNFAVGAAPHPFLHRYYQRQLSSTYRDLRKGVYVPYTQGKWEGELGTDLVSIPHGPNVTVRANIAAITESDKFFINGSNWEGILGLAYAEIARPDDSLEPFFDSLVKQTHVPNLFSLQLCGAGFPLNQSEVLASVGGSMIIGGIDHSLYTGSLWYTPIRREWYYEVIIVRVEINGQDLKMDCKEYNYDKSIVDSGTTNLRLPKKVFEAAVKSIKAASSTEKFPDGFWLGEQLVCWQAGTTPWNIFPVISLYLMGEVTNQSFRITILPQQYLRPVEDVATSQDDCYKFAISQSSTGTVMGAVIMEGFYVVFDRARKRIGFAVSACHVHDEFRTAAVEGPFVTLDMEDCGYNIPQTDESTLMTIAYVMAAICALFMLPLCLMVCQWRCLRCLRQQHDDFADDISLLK

For the compound `CC1(C)CC(c2cnc3c(c2)[C@]2(CSC(N)=N2)c2cc(-c4cncnc4)ccc2O3)=CCO1` [Example 669, (5S)-3-(2,2-dimethyl-3,6-dihydro-2H-pyran-4-yl)-7-(5-pyrimidinyl)spiro[chromeno[2,3-b]pyridine-5,4′-[1,3]thiazol]-2′-amine], the IC50 in test [1] was 0.8 nM; in test [2] (setting [3]), 10 nM.
In the same order, the values of `NC1=N[C@@]2(CO1)c1cc(-c3cccnc3F)ccc1Oc1cnc(-c3ccc(F)c(F)c3)cc12` [Example 534, (5S)-3-(3,4-difluorophenyl)-7-(2-fluoro-3-pyridinyl)spiro[chromeno[2,3-c]pyridine-5,4′-[1,3]oxazol]-2′-amine] are 0.5 nM and 26.6 nM.
`NC1=N[C@@]2(CS1)c1cc(-c3cccnc3F)ccc1Oc1c2cc(C2=CCCOC2)nc1F` [Example 1028, (S)-3-(5,6-dihydro-2H-pyran-3-yl)-1-fluoro-7-(2-fluoropyridin-3-yl)-5′H-spiro[chromeno[2,3-c]pyridine-5,4′-thiazol]-2′-amine]: the IC50 worked out at 0.2 nM in test [1] and 3 nM in test [2] (setting [4]).
Take `CC1(C)C[C@@H](c2cnc3c(c2)[C@]2(COC(N)=N2)c2cc(-c4cccnc4F)ccc2O3)CCO1` [Example 470, (5S)-3-((4S)-2,2-dimethyltetrahydro-2H-pyran-4-yl)-7-(2-fluoro-3-pyridinyl)spiro[chromeno[2,3-b]pyridine-5,4′-[1,3]oxazol]-2′-amine]: the IC50 came to 3.3 nM in test [1] and 14.9 nM in test [2] (setting [3]).
For `COC(C)(C)COc1cnc2c(c1)[C@]1(COC(N)=N1)c1cc(-c3cccc(C(F)(F)F)c3)ccc1O2` [Example 317, (5S)-3-(2-methoxy-2-methylpropoxy)-7-(3-(trifluoromethyl)phenyl)spiro[chromeno[2,3-b]pyridine-5,4′-[1,3]oxazol]-2′-amine], the figures for the IC50 in test [1] and in test [2] (setting [4]) were 2.5 nM and 23.9 nM, respectively.
For the compound `NC1=N[C@@]2(CO1)c1cc(-c3ccncc3F)ccc1Oc1cnc(-c3ccnc(F)c3)cc12` [Example 573, (5S)-3-(2-fluoro-4-pyridinyl)-7-(3-fluoro-4-pyridinyl)spiro[chromeno[2,3-c]pyridine-5,4′-[1,3]oxazol]-2′-amine], the values for the IC50 in test [1] and in test [2] (setting [3]) were 70.8 nM and 801 nM, respectively.
In the case of `NC1=N[C@]2(CO1)c1cc(-c3cccnc3F)c(F)cc1Oc1c(F)cc(C3=CCOCC3)cc12` [Example 868, (4R)-7′-(3,6-dihydro-2H-pyran-4-yl)-3′,5′-difluoro-2′-(2-fluoro-3-pyridinyl)spiro[1,3-oxazole-4,9′-xanthen]-2-amine], the results for the IC50 in test [1] and in test [2] (setting [3]) were 52.1 nM and 1130 nM, respectively.
On to `CC#Cc1cncc(-c2cnc3c(c2)[C@]2(COC(N)=N2)c2cc(-c4cccnc4F)ccc2O3)c1` [Example 777, (5S)-7-(2-fluoro-3-pyridinyl)-3-(5-(1-propyn-1-yl)-3-pyridinyl)spiro[chromeno[2,3-b]pyridine-5,4′-[1,3]oxazol]-2′-amine], for which the results for the IC50 in test [1] and in test [2] (setting [4]) were 106 nM and 3510 nM, respectively.
In the same order, the values of `COc1cc2c(c(F)c1F)Oc1ccc(Br)cc1[C@]21COC(N)=N1` [Example 1002, (4R)-7′-bromo-3′,4′-difluoro-2′-methoxyspiro[1,3-oxazole-4,9′-xanthen]-2-amine] are 18100 nM and at least 10000 nM.
In the case of `NC1=N[C@]2(CO1)c1ccncc1Oc1ccc(-c3c(F)ccnc3F)cc12` [Example 677, (5S)-7-(2,4-difluoro-3-pyridinyl)spiro[chromeno[2,3-c]pyridine-5,4′-[1,3]oxazol]-2′-amine], the IC50 in test [1] is 51.6 nM; in test [2] (setting [3]), 580 nM.
In the same order, the values of `NC1=N[C@@]2(CO1)c1cc(-c3cccnc3)ccc1Oc1cnc(N3CC[C@@H](F)C3)cc12` [Example 411, (5S)-3-((3R)-3-fluoro-1-pyrrolidinyl)-7-(3-pyridinyl)spiro[chromeno[2,3-c]pyridine-5,4′-[1,3]oxazol]-2′-amine] are 2.3 nM and 4.5 nM.
On the same counts, the results for `NC1=N[C@@]2(CO1)c1cc(-c3cccnc3F)ccc1Oc1c(F)cc(-c3ccnnc3)cc12` [Example 686, (4S)-4′-fluoro-7′-(2-fluoro-3-pyridinyl)-2′-(4-pyridazinyl)spiro[1,3-oxazole-4,9′-xanthen]-2-amine] are 0.8 nM and 12 nM.
`NC1=N[C@@]2(CO1)c1cc(-c3ccc(F)nc3)ccc1Oc1c(F)cc(N3CCOCC3)cc12` [Example 202, (4S)-4′-fluoro-7′-(6-fluoro-3-pyridinyl)-2′-(4-morpholinyl)spiro[1,3-oxazole-4,9′-xanthen]-2-amine]: the IC50 was determined as 4.9 nM in test [1] and 11.8 nM in test [2] (setting [4]).
Consider `NC1=N[C@@]2(CO1)c1cc(-c3cccc(Cl)c3F)ccc1Oc1ncc(C3=CCOCC3)cc12` [Example 170, (5S)-7-(3-chloro-2-fluorophenyl)-3-(3,6-dihydro-2H-pyran-4-yl)spiro[chromeno[2,3-b]pyridine-5,4′-[1,3]oxazol]-2′-amine], for which the IC50 turned out to be 1.5 nM in test [1] and 18.3 nM in test [2] (setting [4]).
`COc1cncc(-c2ccc3c(c2)[C@@]2(COC(N)=N2)c2cc(-c4ncccn4)ncc2O3)c1` [Example 687, (5S)-7-(5-methoxy-3-pyridinyl)-3-(2-pyrimidinyl)spiro[chromeno[2,3-c]pyridine-5,4′-[1,3]oxazol]-2′-amine]: the figures for the IC50 in test [1] and in test [2] (setting [3]) were 80.4 nM and 853 nM, respectively.
In the case of `NC1=N[C@]2(CO1)c1cc(C3=CCCOC3)cc(F)c1Oc1ccc(-c3cccnc3F)c(F)c12` [Example 1048, (4R)-7′-(5,6-dihydro-2H-pyran-3-yl)-1′,5′-difluoro-2′-(2-fluoro-3-pyridinyl)spiro[1,3-oxazole-4,9′-xanthen]-2-amine], the IC50 in test [1] is 3.9 nM; in test [2] (setting [4]), 36 nM.
Take `NC1=N[C@@]2(CS1)c1cc(-c3cccnc3)c(F)cc1Oc1c(F)cc(C3=CCCOC3)cc12` [Example 883, (4S)-7′-(5,6-dihydro-2H-pyran-3-yl)-3′,5′-difluoro-2′-(3-pyridinyl)spiro[1,3-thiazole-4,9′-xanthen]-2-amine]: the IC50 in test [1] was 0.3 nM; in test [2] (setting [3]), 50 nM.
Regarding `CC1(COc2cc3c(cc2F)Oc2ccc(-c4cncc(F)c4)cc2[C@@]32COC(N)=N2)COC1` [Example 327, (4S)-3′-fluoro-7′-(5-fluoro-3-pyridinyl)-2′-((3-methyl-3-oxetanyl)methoxy)spiro[1,3-oxazole-4,9′-xanthen]-2-amine], the IC50 in test [1] is 4.1 nM; in test [2] (setting [4]) it was 21.5 nM.
In the case of `CC1(C#Cc2cc3c(nc2F)Oc2ccc(-c4ccc(F)nc4)cc2[C@]32COC(N)=N2)COC1` [Example 905, (5R)-2-fluoro-7-(6-fluoro-3-pyridinyl)-3-((3-methyl-3-oxetanyl)ethynyl)spiro[chromeno[2,3-b]pyridine-5,4′-[1,3]oxazol]-2′-amine], the IC50 was determined as 126 nM in test [1] and 3110 nM in test [2] (setting [3]).
As to `CC1(C)C[C@@H](c2cc3c(cn2)Oc2ccc(-c4cccnc4F)cc2[C@@]32COC(N)=N2)CCO1` [Example 378, (5S)-3-((4S)-2,2-dimethyltetrahydro-2H-pyran-4-yl)-7-(2-fluoro-3-pyridinyl)spiro[chromeno[2,3-c]pyridine-5,4′-[1,3]oxazol]-2′-amine], the IC50 was determined as 4.3 nM in test [1] and 26.4 nM in test [2] (setting [4]).
On the same counts, the results for `NC1=N[C@]2(CO1)c1cc(-c3cccc(Cl)c3)ccc1Oc1cnc(C3=CCOCC3)cc12` [Example 234, (5R)-7-(3-chlorophenyl)-3-(3,6-dihydro-2H-pyran-4-yl)spiro[chromeno[2,3-c]pyridine-5,4′-[1,3]oxazol]-2′-amine] are 490 nM and 4280 nM.
On to `N#Cc1cncc(-c2ccc3c(c2)[C@@]2(COC(N)=N2)c2cc(C4=CCOCC4)cc(F)c2O3)c1` [Example 557, 5-((4S)-2-amino-7′-(3,6-dihydro-2H-pyran-4-yl)-5′-fluorospiro[1,3-oxazole-4,9′-xanthen]-2′-yl)-3-pyridinecarbonitrile], for which the figures for the IC50 in test [1] and in test [2] (setting [3]) were 0.7 nM and 3.7 nM, respectively.
`NC1=N[C@@]2(CO1)c1cc(OCc3cccc(C(F)(F)F)c3)ccc1Oc1ncc(-c3cccnc3)cc12` [Example 985, (5S)-3-(3-pyridinyl)-7-((3-(trifluoromethyl)benzyl)oxy)spiro[chromeno[2,3-b]pyridine-5,4′-[1,3]oxazol]-2′-amine]: the values for the IC50 in test [1] and in test [2] (setting [4]) were 68.3 nM and 288 nM, respectively.
`NC1=N[C@@]2(CO1)c1cc(OCc3ccccc3Br)ccc1Oc1ncc(-c3cccnc3)cc12` [Example 978, (5S)-7-((2-bromobenzyl)oxy)-3-(3-pyridinyl)spiro[chromeno[2,3-b]pyridine-5,4′-[1,3]oxazol]-2′-amine]: the results for the IC50 in test [1] and in test [2] (setting [4]) were 50.7 nM and 334 nM, respectively.
With `NC1=N[C@@]2(CO1)c1cc(-c3c(F)ccnc3F)ccc1Oc1cnc([C@H]3CCCCO3)cc12` [Example 914, (5S)-7-(2,4-difluoro-3-pyridinyl)-3-((2R)-tetrahydro-2H-pyran-2-yl)spiro[chromeno[2,3-c]pyridine-5,4′-[1,3]oxazol]-2′-amine], the IC50 came out at 13.5 nM in test [1] and 102 nM in test [2] (average IC50, HEK cells).
Consider `COc1ncc(F)cc1-c1ccc2c(c1)[C@@]1(COC(N)=N1)c1cc(/C=C/C(C)(C)C)ncc1O2` [Example 407, (5S)-3-((1E)-3,3-dimethyl-1-buten-1-yl)-7-(5-fluoro-2-methoxy-3-pyridinyl)spiro[chromeno[2,3-c]pyridine-5,4′-[1,3]oxazol]-2′-amine], for which the IC50 in test [1] turned out to be 5.3 nM; in test [2] (setting [3]) it was 158 nM.
